Results taken from patent US6737383B1, “Herbicidal oxadiazolidines” (priority 1999, dated 2004).

Columns and labels:
bedstraw = experiment: Test B pre/postemergence bedstraw; type: in vivo, Galium aparine
How it was run: (§1)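 Herbicidal effect was estimated by eye on a ten-point control scale after plants spent twelve to sixteen days in a greenhouse following soil or foliar treatment. Foliar sprays targeted plants at one to four leaves; all doses were formulated in a non-phytotoxic solvent with surfactant.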

blackgrass = experiment: Test B pre/postemergence blackgrass; type: in vivo, Alopecurus myosuroides
How it was run: as §1

giant foxtail = experiment: Test B pre/postemergence giant foxtail; type: in vivo, Setaria faberii
How it was run: as §1

morningglory = experiment: Test B pre/postemergence morningglory; type: in vivo, Ipomoea hederacea
How it was run: as §1

pigweed = experiment: Test B pre/postemergence pigweed; type: in vivo, Amaranthus retroflexus; conditions: for Plant response rating, Redroot pigweed: Postemergence
How it was run: as §1

rape = experiment: Test B pre/postemergence rape; type: in vivo, Brassica napus
How it was run: as §1

soybean = experiment: Test B pre/postemergence soybean; type: in vivo, Glycine max; conditions: for Plant response rating, Soybean: Postemergence
How it was run: as §1

sugar beet = experiment: Test B pre/postemergence sugar beet; type: in vivo, Beta vulgaris; conditions: for Plant response rating, Sugarbeets: Postemergence
How it was run: as §1

velvetleaf = experiment: Test B pre/postemergence velvetleaf; type: in vivo, Abutilon theophrasti; conditions: for Plant response rating, Velvetleaf: Postemergence
How it was run: as §1

wheat = experiment: Test B pre/postemergence wheat; type: in vivo, Triticum aestivum; conditions: for Plant response rating, Wheat: Postemergence
How it was run: as §1

wild oat = experiment: Test B pre/postemergence wild oat; type: in vivo, Avena fatua; conditions: for Plant response rating, Wild oats: Postemergence
How it was run: as §1

purple nutsedge = experiment: Test B pre/postemergence purple nutsedge; type: in vivo, Cyperus rotundus
How it was run: as §1

rice = experiment: Test B flood test rice; type: in vivo, Oryza sativa
How it was run: (§2)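 Plants were grown to the 2-leaf stage before treatment with test chemical, then held in a greenhouse for twelve to sixteen days. Injury was visually rated against untreated controls on a 0–10 scale, where 0 is no effect and 10 is complete control.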

smallflower flatsedge = experiment: Test B flood test smallflower flatsedge; type: in vivo, Cyperus difformis
How it was run: as §2

duck salad = experiment: Test B flood test duck salad; type: in vivo, Heteranthera limosa
How it was run: as §2

bamyardgrass = experiment: Test B flood test barnyardgrass; type: in vivo, Echinochloa crus-galli
How it was run: as §2

[1] = Postemergence, Rate 62 g/ha, scale of 0 to 10, 0 is no effect, 10 is complete control
[2] = Preemergence, Rate 62 g/ha, scale 0 to 10 (0 no effect, 10 complete control)
[3] = Preemergence, Rate 125 g/ha, scale 0 to 10, 0 is no effect, 10 is complete control
[4] = Preemergence, Rate 500 g/ha, scale of 0 to 10 where 0 is no effect and 10 is complete control
[5] = Postemergence, Rate 125 g/ha, scale 0 to 10, 0 is no effect, 10 is complete control
[6] = Postemergence, Rate 500 g/ha, scale of 0 to 10 where 0 is no effect and 10 is complete control
[7] = Rate 250 g/ha, Postemergence, scale of 0 to 10 where 0 is no effect and 10 is complete control
[8] = Rate 500 g/ha, scale of 0 to 10 where 0 is no effect and 10 is complete control
[9] = Rate 250 g/ha, scale of 0 to 10 where 0 is no effect and 10 is complete control
[10] = Rate 62 g/ha, flood test species, Pre-emergence, visual evaluation after twelve to sixteen days
[11] = Rate 125 g/ha, under heading Pre-emergence, flood test species, visual evaluation after twelve to sixteen days
[12] = Rate 250 g/ha, Pre-emergence (flood test species), scale 0 to 10, 0 is no effect, 10 is complete control
[13] = Rate 500 g/ha, Pre-emergence section of Table B, 0 to 10 scale (0 no effect, 10 complete control)

CC(C)N(C(=O)n1oc(=O)n(C(C)C(=O)c2ccccc2)c1=O)c1ccccc1 (stereo not drawn) [Compound 570]
Bedstraw plant response rating (bedstraw; [1]): 0 | Bedstraw plant response rating (bedstraw; [2]): 0 | Bedstraw plant response rating (bedstraw; [3]): 0 | Bedstraw plant response rating (0 to 10 scale) (bedstraw; Preemergence, Rate 250 g/ha): 0 | Bedstraw plant response rating (bedstraw; [4]): 0 | Blackgrass plant response rating (blackgrass; [1]): 0 | Blackgrass plant response rating (blackgrass; [5]): 0 | Plant response rating, Blackgrass (blackgrass; [6]): 0 | Blackgrass plant response rating (blackgrass; [2]): 0 | Blackgrass plant response rating (blackgrass; [3]): 0 | Blackgrass plant response rating (0 to 10 scale) (blackgrass; Preemergence, Rate 250 g/ha): 0 | Blackgrass plant response rating (blackgrass; [4]): 0 | Plant response rating, Blackgrass (blackgrass; [7]): 0 | Giant foxtail plant response rating (giant foxtail; [1]): 0 | Giant foxtail plant response rating (giant foxtail; [5]): 0 | Plant response rating, Giant foxtail (giant foxtail; [6]): 0 | Giant foxtail plant response rating (giant foxtail; [2]): 0 | Giant foxtail plant response rating (giant foxtail; [3]): 0 | Giant foxtail plant response rating (0 to 10 scale) (giant foxtail; Preemergence, Rate 250 g/ha): 9 | Giant foxtail plant response rating (giant foxtail; [4]): 9 | Plant response rating, Giant foxtail (giant foxtail; [7]): 0 | Morningglory plant response rating (morningglory; [1]): 4 | Morningglory plant response rating (morningglory; [5]): 10 | Plant response rating, Morningglory (morningglory; [6]): 10 | Morningglory plant response rating (morningglory; [2]): 0 | Morningglory plant response rating (morningglory; [3]): 0 | Morningglory plant response rating (0 to 10 scale) (morningglory; Preemergence, Rate 250 g/ha): 0 | Morningglory plant response rating (morningglory; [4]): 0 | Plant response rating, Morningglory (morningglory; [7]): 10 | Plant response rating, Redroot pigweed (pigweed; [8]): 0 | Redroot pigweed plant response rating (pigweed; [2]): 0 | Redroot pigweed plant response rating (pigweed; [3]): 0 | Redroot pigweed plant response rating (0 to 10 scale) (pigweed; Preemergence, Rate 250 g/ha): 0 | Redroot pigweed plant response rating (pigweed; [4]): 8 | Plant response rating, Redroot pigweed (pigweed; [9]): 0 | Rape plant response rating (rape; [1]): 0 | Rape plant response rating (rape; [5]): 0 | Plant response rating, Rape (rape; [6]): 0 | Rape plant response rating (rape; [2]): 0 | Rape plant response rating (rape; [3]): 0 | Rape plant response rating (0 to 10 scale) (rape; Preemergence, Rate 250 g/ha): 0 | Rape plant response rating (rape; [4]): 0 | Plant response rating, Rape (rape; [7]): 0 | Plant response rating, Soybean (soybean; [8]): 3 | Soybean plant response rating (soybean; [2]): 0 | Soybean plant response rating (soybean; [3]): 0 | Soybean plant response rating (0 to 10 scale) (soybean; Preemergence, Rate 250 g/ha): 0 | Soybean plant response rating (soybean; [4]): 0 | Plant response rating, Soybean (soybean; [9]): 3 | Plant response rating, Sugarbeets (sugar beet; [8]): 0 | Sugarbeets plant response rating (sugar beet; [2]): 0 | Sugarbeets plant response rating (sugar beet; [3]): 0 | Sugarbeets plant response rating (0 to 10 scale) (sugar beet; Preemergence, Rate 250 g/ha): 0 | Sugarbeets plant response rating (sugar beet; [4]): 2 | Plant response rating, Sugarbeets (sugar beet; [9]): 0 | Plant response rating, Velvetleaf (velvetleaf; [8]): 0 | Velvetleaf plant response rating (velvetleaf; [2]): 0 | Velvetleaf plant response rating (velvetleaf; [3]): 0 | Velvetleaf plant response rating (0 to 10 scale) (velvetleaf; Preemergence, Rate 250 g/ha): 0 | Velvetleaf plant response rating (velvetleaf; [4]): 0 | Plant response rating, Velvetleaf (velvetleaf; [9]): 0 | Plant response rating, Wheat (wheat; [8]): 0 | Wheat plant response rating (wheat; [2]): 0 | Wheat plant response rating (wheat; [3]): 0 | Wheat plant response rating (0 to 10 scale) (wheat; Preemergence, Rate 250 g/ha): 0 | Wheat plant response rating (wheat; [4]): 0 | Plant response rating, Wheat (wheat; [9]): 0 | Plant response rating, Wild oats (wild oat; [8]): 0 | Wild oats plant response rating (wild oat; [2]): 0 | Wild oats plant response rating (wild oat; [3]): 0 | Wild oats plant response rating (0 to 10 scale) (wild oat; Preemergence, Rate 250 g/ha): 0 | Wild oats plant response rating (wild oat; [4]): 0 | Plant response rating, Wild oats (wild oat; [9]): 0 | Nutsedge plant response rating (purple nutsedge; [1]): 0 | Nutsedge plant response rating (purple nutsedge; [5]): 0 | Plant response rating, Nutsedge (purple nutsedge; [6]): 0 | Nutsedge plant response rating (purple nutsedge; [2]): 0 | Nutsedge plant response rating (purple nutsedge; [3]): 0 | Nutsedge plant response rating (purple nutsedge; [4]): 0 | Plant response rating, Nutsedge (purple nutsedge; [7]): 0 | Plant response rating, Rice (0 to 10 scale, 0 is no effect, 10 is complete control) (rice; [10]): 0 | Rice plant response rating (0 to 10 scale, 0 is no effect, 10 is complete control) (rice; [11]): 0 | Rice plant response rating (rice; [12]): 0 | Rice plant response rating (rice; [13]): 0 | Plant response rating, S. Flatsedge (0 to 10 scale, 0 is no effect, 10 is complete control) (smallflower flatsedge; [10]): 0 | S. Flatsedge plant response rating (0 to 10 scale, 0 is no effect, 10 is complete control) (smallflower flatsedge; [11]): 0 | S. Flatsedge plant response rating (smallflower flatsedge; [12]): 0 | S. Flatsedge plant response rating (smallflower flatsedge; [13]): 0 | Plant response rating, Ducksalad (0 to 10 scale, 0 is no effect, 10 is complete control) (duck salad; [10]): 0 | Ducksalad plant response rating (0 to 10 scale, 0 is no effect, 10 is complete control) (duck salad; [11]): 0 | Ducksalad plant response rating (duck salad; [12]): 0 | Ducksalad plant response rating (duck salad; [13]): 0 | Plant response rating, Barnyardgrass (0 to 10 scale, 0 is no effect, 10 is complete control) (bamyardgrass; [10]): 0 | Barnyardgrass plant response rating (0 to 10 scale, 0 is no effect, 10 is complete control) (bamyardgrass; [11]): 0 | Barnyardgrass plant response rating (bamyardgrass; [12]): 0 | Barnyardgrass plant response rating (bamyardgrass; [13]): 0
